Experiments:
α-Adrenergic α2B = target: T1, α-Adrenergic α2B (Homo sapiens, UniProt P18089); assay: Receptor binding, α2B
T1 sequence (P18089 1-450): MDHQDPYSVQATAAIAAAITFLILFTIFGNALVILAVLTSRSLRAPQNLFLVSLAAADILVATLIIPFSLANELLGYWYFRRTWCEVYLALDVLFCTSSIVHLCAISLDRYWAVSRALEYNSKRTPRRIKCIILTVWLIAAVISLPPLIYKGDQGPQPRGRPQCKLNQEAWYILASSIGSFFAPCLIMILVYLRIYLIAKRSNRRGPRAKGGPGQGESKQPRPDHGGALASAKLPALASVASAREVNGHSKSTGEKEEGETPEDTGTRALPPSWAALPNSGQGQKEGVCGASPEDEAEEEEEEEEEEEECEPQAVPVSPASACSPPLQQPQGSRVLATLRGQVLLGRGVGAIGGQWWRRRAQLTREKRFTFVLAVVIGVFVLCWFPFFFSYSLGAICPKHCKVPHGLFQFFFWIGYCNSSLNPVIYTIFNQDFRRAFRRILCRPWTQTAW

Muscarinic M3 = Muscarinic M3 (Homo sapiens, UniProt P20309); assay: Receptor binding, M3
α-Adrenergic α2C = target: T2, α-Adrenergic α2C (Homo sapiens, UniProt P18825); assay: Receptor binding, α2C
T2 sequence (P18825 1-462): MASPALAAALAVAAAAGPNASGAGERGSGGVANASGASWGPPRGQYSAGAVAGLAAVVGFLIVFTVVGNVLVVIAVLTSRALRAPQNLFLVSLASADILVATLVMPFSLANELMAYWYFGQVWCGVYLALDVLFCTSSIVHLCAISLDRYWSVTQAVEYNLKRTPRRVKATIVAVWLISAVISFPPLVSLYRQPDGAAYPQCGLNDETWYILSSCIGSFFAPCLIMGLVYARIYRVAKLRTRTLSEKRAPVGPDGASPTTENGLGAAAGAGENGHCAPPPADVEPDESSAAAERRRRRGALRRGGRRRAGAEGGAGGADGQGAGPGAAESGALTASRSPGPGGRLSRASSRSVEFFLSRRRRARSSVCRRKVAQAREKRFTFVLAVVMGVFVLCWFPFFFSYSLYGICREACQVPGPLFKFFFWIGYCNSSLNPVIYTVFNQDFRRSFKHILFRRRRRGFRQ

α-Adrenergic α2A = target: T3, α-Adrenergic α2A (Homo sapiens, UniProt P08913); assay: Receptor binding, α2A
T3 sequence (P08913 1-465): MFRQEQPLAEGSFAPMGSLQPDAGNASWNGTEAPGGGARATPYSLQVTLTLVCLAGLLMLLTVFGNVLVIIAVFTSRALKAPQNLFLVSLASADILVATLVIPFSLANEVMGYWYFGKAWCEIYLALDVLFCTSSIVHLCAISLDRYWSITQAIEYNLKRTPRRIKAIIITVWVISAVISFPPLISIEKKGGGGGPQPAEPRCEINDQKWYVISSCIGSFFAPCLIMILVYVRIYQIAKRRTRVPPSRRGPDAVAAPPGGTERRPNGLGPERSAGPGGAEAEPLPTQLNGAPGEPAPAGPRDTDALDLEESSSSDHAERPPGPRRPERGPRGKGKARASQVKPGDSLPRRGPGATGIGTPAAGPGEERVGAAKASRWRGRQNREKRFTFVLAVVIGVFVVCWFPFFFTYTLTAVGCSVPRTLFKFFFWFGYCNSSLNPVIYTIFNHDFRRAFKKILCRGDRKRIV

Opioid κ = Opioid κ (Homo sapiens, UniProt P41145); assay: Receptor binding, opioid κ
α-Adrenergic α1A = α-Adrenergic α1A (Homo sapiens, UniProt P35348); assay: Receptor binding, α1A
α-Adrenergic α1B = α-Adrenergic α1B (Homo sapiens, UniProt P35368); assay: Receptor binding, α1B
[1] = tested on: rats with a history of chronic meth self-administration; assay: Reinstatement of meth seeking; assay type: in vivo; details: 10 mg/kg i.p. just before reinstatement session (meth priming 1 mg/kg i.p. and cues), FIG. 3
Protocol: DDD-024 was initially tested for effects on the reinstatement of meth seeking in a small pilot group of rats with a history of chronic meth self-administration. […] Rats received a vehicle (10% DMSO) or DDD-024 (10 mg/kg) injection (i.p.) just before each reinstatement session, which consisted of a meth priming injection (1 mg/kg, i.p.) and presentation of meth-associated cues (tone and light) upon each lever press.

Serotonin 5-HT5A = Serotonin 5-HT5A (Homo sapiens, UniProt P47898); assay: Receptor binding, 5-HT5A
Serotonin 5-HT7 = Serotonin 5-HT7 (Homo sapiens, UniProt P34969); assay: Receptor binding, 5-HT7
[2] = tested on: mice (129SV/PAS background); assay: MDMA-induced motor behavior (locomotor activity); assay type: in vivo; details: FIG. 4
Protocol: In this in vivo study, locomotor activity was measured in a circular corridor with four infrared beams placed at every 90° (Imetronic, France). Counts were incremented by consecutive interruption of two adjacent beams (i.e. mice moving through one-quarter of the corridor). DDD-024 was tested in MDMA-induced motor behavior at 5, 10 and 20 mg/kg, ip, in mice (129SV/PAS background, 8 week old, Charles River Laboratories). The animals were injected with vehicle and individually placed in the activity box for 30 min during 3 days consecutively for habituation before experiments. Mice received vehicle or DDD-024 (5-20 mg/kg, i.p.) injection 30 min before MDMA injection (10 mg/kg).

Serotonin 5-HT3 = Serotonin 5-HT3 (Homo sapiens, UniProt P46098); assay: Receptor binding, 5-HT3
β-Adrenergic β1 = β-Adrenergic β1 (Homo sapiens, UniProt P08588); assay: Receptor binding, β1
Chain of β-Adrenergic β1 (P08588 whole entry): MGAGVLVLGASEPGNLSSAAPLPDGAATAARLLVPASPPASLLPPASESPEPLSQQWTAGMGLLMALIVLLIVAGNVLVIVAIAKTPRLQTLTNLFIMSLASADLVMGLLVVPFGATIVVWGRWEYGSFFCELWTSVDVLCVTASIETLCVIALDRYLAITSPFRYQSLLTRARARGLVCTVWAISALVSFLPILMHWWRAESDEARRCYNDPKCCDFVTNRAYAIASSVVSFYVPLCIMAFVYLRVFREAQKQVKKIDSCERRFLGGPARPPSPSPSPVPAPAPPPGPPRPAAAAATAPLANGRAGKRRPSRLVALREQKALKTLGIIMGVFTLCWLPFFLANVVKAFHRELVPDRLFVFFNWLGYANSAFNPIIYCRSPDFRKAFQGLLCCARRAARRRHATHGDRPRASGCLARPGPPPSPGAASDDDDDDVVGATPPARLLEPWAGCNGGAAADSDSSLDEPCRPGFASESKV

Chain of Serotonin 5-HT7 (P34969 whole entry): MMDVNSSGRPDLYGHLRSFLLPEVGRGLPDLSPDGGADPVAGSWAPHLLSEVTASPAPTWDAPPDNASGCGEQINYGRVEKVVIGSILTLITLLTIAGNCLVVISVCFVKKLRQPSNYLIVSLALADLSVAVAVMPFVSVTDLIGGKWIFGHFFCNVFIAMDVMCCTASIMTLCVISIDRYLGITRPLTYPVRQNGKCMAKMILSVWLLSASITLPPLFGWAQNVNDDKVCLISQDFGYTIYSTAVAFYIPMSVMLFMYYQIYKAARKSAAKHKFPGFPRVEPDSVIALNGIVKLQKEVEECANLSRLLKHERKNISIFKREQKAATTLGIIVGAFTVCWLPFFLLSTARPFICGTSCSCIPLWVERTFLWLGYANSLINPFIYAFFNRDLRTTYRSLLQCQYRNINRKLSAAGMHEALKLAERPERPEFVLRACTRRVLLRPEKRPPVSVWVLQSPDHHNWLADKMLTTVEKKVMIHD
Chain of α-Adrenergic α1A (P35348 whole entry): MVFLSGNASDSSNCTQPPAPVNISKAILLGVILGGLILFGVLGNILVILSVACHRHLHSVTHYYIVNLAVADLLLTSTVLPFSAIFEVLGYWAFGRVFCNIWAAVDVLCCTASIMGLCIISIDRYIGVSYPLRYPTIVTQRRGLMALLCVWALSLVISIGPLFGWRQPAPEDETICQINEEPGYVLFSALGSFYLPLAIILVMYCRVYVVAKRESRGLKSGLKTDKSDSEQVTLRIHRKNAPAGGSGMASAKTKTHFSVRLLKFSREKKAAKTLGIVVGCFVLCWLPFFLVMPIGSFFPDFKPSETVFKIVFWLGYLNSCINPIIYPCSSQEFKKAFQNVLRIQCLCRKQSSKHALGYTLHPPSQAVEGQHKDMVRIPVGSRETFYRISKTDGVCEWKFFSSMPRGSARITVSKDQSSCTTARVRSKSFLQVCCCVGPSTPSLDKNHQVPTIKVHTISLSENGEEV
Chain of Serotonin 5-HT3 (P46098 24-478): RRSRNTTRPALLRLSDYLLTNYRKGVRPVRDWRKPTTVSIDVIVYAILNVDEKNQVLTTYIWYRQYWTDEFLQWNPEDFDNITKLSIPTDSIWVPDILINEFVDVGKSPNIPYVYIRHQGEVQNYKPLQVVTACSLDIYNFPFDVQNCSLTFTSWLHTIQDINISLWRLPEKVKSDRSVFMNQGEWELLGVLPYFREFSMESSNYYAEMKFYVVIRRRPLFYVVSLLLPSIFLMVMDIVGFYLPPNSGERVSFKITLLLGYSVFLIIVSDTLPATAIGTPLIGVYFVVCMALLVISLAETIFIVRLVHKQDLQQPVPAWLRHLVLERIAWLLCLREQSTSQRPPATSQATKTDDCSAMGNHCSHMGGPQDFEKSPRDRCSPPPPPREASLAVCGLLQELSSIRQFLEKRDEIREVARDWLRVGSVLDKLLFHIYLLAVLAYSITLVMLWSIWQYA
Chain of Serotonin 5-HT5A (P47898 whole entry): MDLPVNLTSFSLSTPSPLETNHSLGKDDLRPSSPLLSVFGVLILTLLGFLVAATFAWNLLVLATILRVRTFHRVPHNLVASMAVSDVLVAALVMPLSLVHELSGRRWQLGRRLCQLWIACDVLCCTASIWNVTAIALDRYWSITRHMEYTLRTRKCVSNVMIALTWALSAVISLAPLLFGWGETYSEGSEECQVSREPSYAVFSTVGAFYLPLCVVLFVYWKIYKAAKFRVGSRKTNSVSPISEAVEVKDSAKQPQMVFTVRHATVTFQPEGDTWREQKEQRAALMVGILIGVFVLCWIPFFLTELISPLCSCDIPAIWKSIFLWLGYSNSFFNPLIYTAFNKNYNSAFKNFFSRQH
Chain of Muscarinic M3 (P20309 whole entry): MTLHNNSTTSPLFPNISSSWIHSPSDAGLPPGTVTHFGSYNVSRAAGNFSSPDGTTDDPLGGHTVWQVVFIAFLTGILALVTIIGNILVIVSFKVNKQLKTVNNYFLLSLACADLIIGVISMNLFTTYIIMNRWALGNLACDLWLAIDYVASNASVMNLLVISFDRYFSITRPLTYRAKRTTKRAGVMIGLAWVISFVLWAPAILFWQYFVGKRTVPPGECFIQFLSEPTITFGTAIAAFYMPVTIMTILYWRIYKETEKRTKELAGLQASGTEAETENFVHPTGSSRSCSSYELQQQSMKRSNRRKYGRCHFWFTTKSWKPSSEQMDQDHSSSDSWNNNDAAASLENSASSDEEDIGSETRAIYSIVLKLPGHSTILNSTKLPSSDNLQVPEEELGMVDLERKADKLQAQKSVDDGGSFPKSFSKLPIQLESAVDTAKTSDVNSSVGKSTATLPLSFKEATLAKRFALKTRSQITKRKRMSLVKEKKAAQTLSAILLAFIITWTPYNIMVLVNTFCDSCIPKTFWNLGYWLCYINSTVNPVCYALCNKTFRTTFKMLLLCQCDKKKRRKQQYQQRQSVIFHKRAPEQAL
Chain of α-Adrenergic α1B (P35368 whole entry): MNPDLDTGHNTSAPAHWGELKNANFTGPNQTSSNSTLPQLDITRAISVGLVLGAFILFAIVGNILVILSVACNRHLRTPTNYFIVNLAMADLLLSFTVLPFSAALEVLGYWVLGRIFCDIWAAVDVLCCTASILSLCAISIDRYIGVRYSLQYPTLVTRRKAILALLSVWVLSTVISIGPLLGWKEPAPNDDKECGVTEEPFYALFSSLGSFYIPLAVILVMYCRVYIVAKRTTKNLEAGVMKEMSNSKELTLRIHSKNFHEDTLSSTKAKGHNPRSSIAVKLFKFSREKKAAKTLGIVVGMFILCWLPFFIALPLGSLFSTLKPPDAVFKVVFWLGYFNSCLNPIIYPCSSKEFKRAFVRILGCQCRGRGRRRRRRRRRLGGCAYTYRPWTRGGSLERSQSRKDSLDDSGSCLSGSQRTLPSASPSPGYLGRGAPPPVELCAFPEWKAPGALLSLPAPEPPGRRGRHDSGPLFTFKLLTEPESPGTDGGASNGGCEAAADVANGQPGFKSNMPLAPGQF
Chain of Opioid κ (P41145 whole entry): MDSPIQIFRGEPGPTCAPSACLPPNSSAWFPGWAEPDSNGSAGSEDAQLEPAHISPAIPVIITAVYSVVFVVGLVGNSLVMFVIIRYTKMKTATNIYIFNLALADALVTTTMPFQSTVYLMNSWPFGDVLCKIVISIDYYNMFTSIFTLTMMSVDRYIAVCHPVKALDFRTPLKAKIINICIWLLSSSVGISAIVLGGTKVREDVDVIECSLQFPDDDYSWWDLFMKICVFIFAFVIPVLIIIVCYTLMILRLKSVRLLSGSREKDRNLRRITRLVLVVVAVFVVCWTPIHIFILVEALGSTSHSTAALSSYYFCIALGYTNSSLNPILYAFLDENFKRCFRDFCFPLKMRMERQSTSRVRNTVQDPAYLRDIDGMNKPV

`CN1CCc2c(c3cccc4c3n2Cc2ccccc2O4)C1` [Compound 13b] was tested. Which Ki (α-Adrenergic α2B) did it give?
Its Ki is over 10 µM.

What about the Ki (Muscarinic M3) of the same compound?
The Ki was over 10 µM.

What about the Ki (α-Adrenergic α2C) of the same compound?
The Ki was 0.507 µM.

And the Ki (α-Adrenergic α2A)?
Its Ki is 1.46 µM.

What about the Ki (Opioid κ) of the same compound?
The Ki was over 10 µM.

And the Ki (α-Adrenergic α1A)?
The Ki was 5.86 µM.

And the Ki (α-Adrenergic α1B)?
Its Ki is over 10 µM.

And the “number of lever presses (meth seeking behavior)” value [1]?
The value was “significantly reduced”.

And the Ki (Serotonin 5-HT5A)?
Its Ki is 1.91 µM.

And the Ki (Serotonin 5-HT7; 5-HT7)?
The Ki was 0.258 µM.

What about the “binding, in words” value (Serotonin 5-HT7; 5-HT7, text summary of Table 1) of the same compound?
The value was “moderate binding”.

And the “increase in motor activity elicited by MDMA” value ([2]; 10 mg/kg i.p. 30 min before MDMA 10 mg/kg)?
The value was “partially”.

What about the “increase in motor activity elicited by MDMA” value ([2]; 20 mg/kg i.p. 30 min before MDMA 10 mg/kg) of the same compound?
Its value is “completely blocked”.

And the Ki (Serotonin 5-HT3)?
Its Ki is over 10 µM.

And the Ki (β-Adrenergic β1)?
Its Ki is over 10 µM.

Source: US9598414B2, “Substituted benzo[5,6]azepino[3,2,1-hi]pyrido[4,3-b]indoles and substituted benzo[6,7][1,4]oxazepino[2,3,4-hi]pyrido[4,3-b]indoles for treating CNS disorders” (Daya Drug Discoveries, Inc., priority 2013, dated 2017)
